Assay results: patent US20260240763A1, “Inhalable Serotonin Receptor Agonist Formulations” (Pinata Holdings Inc., priority 2022, published 2026)

Test system: generalized anxiety and/or post-traumatic stress disorder (PTSD)
Assay: Inhaled dry powder given to subjects for generalized anxiety and/or PTSD
Assay type: in vivo, human
Settings: encapsulated by HPMCAS, inhaler
Protocol: Three male subjects and one subject were administered doses of 5 mg, 10 mg, and 15 mg of psilocybin. Each individual dosage level was administered about three weeks apart for the treatment of generalized anxiety and/or post-traumatic stress disorder (PTSD). In a separate experiment, the subjects were administered doses of 1 mg, 5 mg, and 10 mg of 4-AoC-DMT (O-Acetylpsilocin). Each individual dosage level was administered about three weeks apart for the treatment of generalized anxiety and/or post-traumatic stress disorder (PTSD). The dry powder pharmaceutical compositions comprised psilocybin or 4-AoC-DMT encapsulated by HPMCAS using the methods described herein (e.g., spay drying). The encapsulated dry powder was administered with an inhaler.

Compound | adverse effects noted (4-AoC-DMT 1 mg and 5 mg, four subjects) | adverse effects noted (4-AoC-DMT 10 mg, indicated by 3 male patients and 1 patient) | effect on anxiety in the subjects (doses of 1 mg and 5 mg of 4-AoC-DMT, each about three weeks apart, three male subjects and one subject) | adverse effects noted (psilocybin 5 mg, 10 mg and 15 mg, four subjects)
CC(=O)Oc1cccc2[nH]cc(CCN(C)C)c12 [4-AoC-DMT, 4-Acetoxy-N,N-dimethyltryptamine] | No adverse effects | too much | reduced anxiety | –
CN(C)CCc1c[nH]c2cccc(OP(=O)(O)O)c12 [psilocybin, 4-phosphoryloxy-N,N-dimethyltryptamine] | – | – | – | No adverse effects
